This note sets out measurements from patent US20230331679A1, “NAPHTHALENE MONOIMIDE COMPOUNDS AND METHODS THEREOF” (JAWAHARLAL NEHRU CENTRE FOR ADVANCED SCIENTIFIC RESEARCH, priority 2020, published 2023).

The target of one data set is T1, Aβ42 peptide (Homo sapiens, UniProt P05067).
T1 construct: commercially available β-amyloid peptide (1-42), human; purchased marck (so in the source) PP69-.025 mg
Description: 1H NMR study of molecular interactions between TGR63 and Aβ42. The conditions noted are these: Aβ42 10 µM, D2O (12%) containing PBS, 24, 48 and 72 h. In kind it is binding. On the procedure:
Nuclear magnetic resonance (NMR) spectroscopy was performed to ascertain the molecular level interactions between TGR63 and Aβ42 peptide. ^1H NMR spectra of TGR63 were acquired in absence and presence of Aβ42 (10 µM) peptides using the WATERGATE sequence for solvent suppression in deuterium oxide (D2O, 12%) containing PBS at different incubation time points (24, 48 and 72 h). […] The aromatic protons of NMI and aniline moieties (a-f) appeared at 6.5-8.8 ppm, respectively. However, the splitting patterns of all the aromatic peaks were completely readjusted undergoing a significant downfield shift over a period of time in the presence of Aβ42 peptide. This observation confirmed the interaction of aromatic moieties (π-electron rich) of TGR63 with native and misfolded Aβ42 peptides, which leads to alteration in the extent of nuclei and proximal electron coupling (J-couplings).

The target in another data set is T2, Aβ42 fibrils (Homo sapiens, UniProt P05067).
T2 construct: commercially available β-amyloid peptide (1-42), human; purchased marck (so in the source) PP69-.025 mg
T2 sequence (P05067 672-713 limits assumed): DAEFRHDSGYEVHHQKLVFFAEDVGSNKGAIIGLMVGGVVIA
Kind of data set: Dot blot analysis of Aβ42 fibrils with OC antibody. In kind it is biochemical. On the procedure: The inhibition ability of TGR63 was further supported through dot blot ([…]) analysis which was used to evaluate the amount of Aβ42 fibrils. 10 µM of freshly prepared Aβ42 sample was incubated with TGR63 and alone independently for 48 h without shaking. The incubated samples were dotted on the PVDF membrane and allowed to dry. The PVDF membranes were blocked using 5% skimmed milk in PBS for 1 h at room temperature. The blots were washed (3 times) with 1% of Tween 20 containing PBS (PBST) for 10 min and incubated with OC (1:1000) primary antibody, specific to Aβ42 fibrils at 4° C. for 16 h. Then the unbound primary antibody was removed by PBST wash (3 times) and incubated with HRP conjugated anti-rabbit secondary antibody (Biorad, 1706515), which was diluted 10000 times. Further, nonspecific binding was removed with PBST wash and the blots were developed (chemiluminescent) and analyzed using BioRad ECL kit. […] Quantification of Aβ42 fibrils was done by firstly incubating 10 µM of Aβ42 peptide samples for 48 h at 37° C. The incubated samples were then spotted on a PVDF membrane and probed with OC (fibril specific, 1:1000) antibody to measure the amount of Aβ fibrils.

Data set [1] concerns the target T3, Aβ42 fibrillar aggregates (Homo sapiens, UniProt P05067).
T3 construct: commercially available β-amyloid peptide (1-42), human; purchased marck (so in the source) PP69-.025 mg
Kind of data set: ThT binding assay, dissolution of preformed Aβ42 fibrils. It is filed as biochemical. The conditions noted are these: after sixth day of incubation. How it is done: Monomeric form of Aβ42 peptide was prepared by dissolving 0.25 mg of commercially available β-amyloid peptide (1-42), human (cat: PP69-.025 mg), marck peptide in 250 µL of hexafluoro-2-propanol (HFIP) solvent to obtain a Aβ42 solution. This solution was incubated at room temperature for 1 hour, further to which the HFIP solvent was removed by nitrogen gas flow to obtain the monomeric Aβ42 peptide. To prepare a fibrillar sample of Aβ42 peptide, 0.025 mg of Aβ42 peptide was dissolved in […] of PBS buffer (pH = 7.4; contains 2% of DMSO or 100 mM NaOH) to obtain a monomeric Aβ42 solution and the peptide concentration in this solution was calculated through UV-Visible absorbance studies (ε = 1450 cm^-1 M^-1). The Aβ42 monomeric solution was incubated for 5 days in PBS buffer (pH = 7.4) to allow for the full phase formation of Aβ42 fibrils. The presence of Aβ42 fibrils was further confirmed by ThT assay.
The ability of NMI compounds (TGR63, TGR64 and TGR65) to prevent Aβ42 fibrillar assembly (inhibition) and to break down the preformed fibrils (dissolution) was evaluated using thioflavin (ThT) binding assay. Aβ42 fibrils at a concentration of 10 µM and its aggregates, were used to study the effect of NMI compounds (TGR63, TGR64 and TGR65) at varying concentrations on both inhibition and dissolution assays. For the inhibition assay, all the NMI compounds (TGR63, TGR64 and TGR65) were added independently to Aβ peptide (10 µM) at 0 h of the experiment, whereas for the aggregates dissolution assay they were added to Aβ42 fibrillar aggregates grown for 2 days. Upon incubating for a predetermined period, Aβ42 inhibitor samples were analyzed using ThT by measuring the fluorescence change at 485 nm as presented in FIG. 1(b) and FIG. 1(c), wherein the error bars represent the standard deviation (SD) of the fluorescence measurement. Fluorescence values were normalized to maximal fluorescence intensity at 485 nm compared to that of the control (Aβ42 with no inhibitor). Experiments were performed at various stoichiometric ratios (Aβ42/inhibitor) of 1:1, 1:2, and 1:5 with a fixed concentration of Aβ42 at 10 µM. Each experiment was repeated three times (n = 3). […] TGR 63 recorded 80% dissolution efficiency while TGR 64 and TGR 65 recorded 75% and 78% dissolution efficiency respectively, for the stoichiometric ratio of 1:5.

Data set [2] in a line: Serum stability under in vitro conditions (absorbance). The conditions noted are these: WT mouse blood serum, 0.5, 1, 2 and 6 h at 37° C. In kind it is in vitro ADME.

T3 sequence (P05067 672-713 limits assumed): as above
T1 sequence (P05067 672-713 limits assumed): as above

Regarding `CN(C)c1ccc(C#Cc2ccc3c4c(cccc24)C(=O)N(CC[N+](C)(C)C)C3=O)cc1` [TGR63, 2-(6-((4-(dimethylamino)phenyl)ethynyl)-1,3-dioxo-1H-benzo[de]isoquinolin-2(3H)-yl)-N,N,N-trimethylethan-1-aminium], the “interaction with Aβ42 peptides (1H NMR)” value at Aβ42 peptide is “interacts with native and misfolded Aβ42 peptides”. Besides, the “Aβ42 aggregates (quantification of dot blot)” value is ~ 90% on Aβ42 fibrils (L2, 10 µM TGR63, 10 µM Aβ42, 48 h at 37° C.) and ~ 40% at Aβ42 fibrils (L3, 50 µM TGR63, 10 µM Aβ42, 48 h at 37° C.). Moreover, the “amount of Aβ42 fibrils decreased (blot image; Aβ42 alone 100%)” value at Aβ42 fibrils (L3, 50 µM TGR63, 10 µM Aβ42, 48 h) was ~ 50%. Further, the dissolution efficiency in data set [1] (Aβ42/inhibitor 1:1, Aβ42 10 µM) is recorded as ~ 35%; in data set [1] (Aβ42/inhibitor 1:2, Aβ42 10 µM), ~ 50%; in data set [1] (Aβ42/inhibitor 1:5, Aβ42 10 µM), 80%. The “stability in blood serum (normalized absorbance at 450 nm)” value in data set [2] is on record as “confirmed the stability of TGR63 in blood serum”.
